Like-named read-outs stand apart in the source and are kept apart here.

The AUC(0-inf) is the area under the concentration-time curve extrapolated to infinity. A low value points to low exposure. As a reminder, the AUC(0-t) is the area under the concentration-time curve up to a stated or last time point. Higher therefore signals high exposure. By Cmax is commonly meant the peak of the concentration-time curve. The term MRT inf denotes a mean duration of stay, worked out from the concentration-time curve. As usually defined, the Tmax is the time from dosing to the highest level. By half-life is commonly meant how long it takes for the measured level to halve.

One data set relates to MTB H37Rv. Description: Macrophage infection and CFU assay (intracellular survival in RAW 264.7). To be noted: for Percent survival of MTB (percentage of control): adjunctive action experiment, dose not given. It is filed as cell-based, Mycobacterium tuberculosis.
For data set [1], the system named is MDR clinical isolate of MTB, strain-1. The data set is classed as cell-based, Mycobacterium tuberculosis. To be noted: 10μM and 20μM, 48 and 72h.
Data set [2] deals with MDR clinical isolate of MTB, strain-2. The data set is classed as cell-based, Mycobacterium tuberculosis. To be noted: 10μM and 20μM, 48 and 72h.
Data set [3] has as its system LC3-I to LC3-II conversion and p62 degradation in RAW 264.7 cells. Put plainly: Western blot of autophagy markers, uninfected cells. The data set is classed as cell-based, Murine. To be noted: 10μM and 20μM, 24h. Here is the method:
(§1) Cells were harvested, washed thrice with 1X cold PBS and lysed in RIPA lysis buffer containing 1% protease inhibitor cocktail (Sigma) and 3% phosphatase inhibitor cocktail (Sigma). Total protein concentration in the cell lysate was estimated by Bradford reagent (Sigma). Samples containing equal amounts of protein (80μg/well) were run on 10% SDS PAGE followed by electro transfer on nitrocellulose membrane. Membranes were blocked with blocking buffer (5% w/v skimmed milk in 1X TBST) for 30 minutes followed by incubation with respective antibodies for 4 h at room temperature. Further, membranes were washed thrice with 1xTBST for 15 minutes and incubated appropriate secondary antibody HRP conjugate for 2 h and blots were developed with Enhanced Chemiluminescence kit (Roche) according to manufacturer’s protocol. Densitometric analysis was performed using ImageJ software.

Data set [4] relates to LC3-I to LC3-II conversion and p62 degradation in MTB H37Rv infected RAW cells. Put plainly: Western blot of autophagy markers, MTB infected cells. The data set is classed as cell-based, Murine. Particulars: 10μM and 20μM, MTB H37Rv infected RAW macrophages. The procedure: as §1
Data set [5] concerns Caspase-3, cleaved caspase-3, cleaved PARP, Bax and Bcl-2 in RAW cells with or without MTB infection. Put plainly: Western blot of pro and anti-apoptotic proteins. It is filed as cell-based, Murine. Particulars: 10μM and 20μM. The procedure: as §1
Data set [6] has as its system GFP-MTB H37Rv infected RAW 264.7 cells. Put plainly: Confocal microscopy of phagosome lysosome fusion. Particulars: 10μM and 20μM, 48h, MOI 5. It is filed as cell-based, Murine.
Method: RAW 264.7 cells (5 x 10^5 cells/ml) were seeded on sterile coverslips in 6-well plates and incubated at 37°C for overnight in CO2 incubator. Next day cells were infected with GFP-MTB H37Rv at MOI 5 and treated with CMN for 48h. Lysotracker Red (Thermo) was added to each well at concentration of 70nM for 3h prior to the end of incubation. Coverslips were washed twice with sterile 1XPBS and fixed with 4% para formaldehyde. Cover slips were mounted on glass slides using Prolong® Gold Antifade (Thermo) mounting reagent containing DAPI and images were acquired on Zeiss LSM 510 Meta confocal microscope (Carl Zeiss) equipped with 63X oil immersion lens. Optical sections with Z-stack were taken to evaluate colocalization and images were deconvolved.
Data set [7] can be described thus: Oral pharmacokinetics study. Particulars: 50 mg/kg.

Turning to `COc1cc(C=CC(=O)CC(=O)C=Cc2ccc(O)c(OC)c2)ccc1O` [CMN, 1,7-bis (4-hydroxy-3-methoxy-phenyl) hepta-1,6-diene-3,5-dione], the “Percent survival (percentage of control)” value with MTB H37Rv (10μM, 48h, in presence of autophagy inhibitor 3-MA) is listed as 87.1 ± 6.6%; in the data set on MTB H37Rv (10μM, 48h post infection, RAW 264.7, MOI 5), 57 ± 4.6%; with MTB H37Rv (10μM, 72h, in presence of autophagy inhibitor 3-MA) it was 80.1 ± 6.8%; with MTB H37Rv (10μM, 72h post infection, RAW 264.7, MOI 5), 49.1 ± 7.8%; in the data set with MTB H37Rv (20μM, 48h, RAW 264.7, MOI 5), 47.7 ± 4.1%; in the data set on MTB H37Rv (20μM, 48h, in presence of autophagy inhibitor 3-MA) it was 87.1 ± 4.6%. Also, the “Percent survival (percentage of control)” value with MTB H37Rv (20μM, 72h, RAW 264.7, MOI 5) is reported as 45.6 ± 6.1%; in the data set with MTB H37Rv (20μM, 72h, in presence of autophagy inhibitor 3-MA), 85.7 ± 8.8%. Further, the “Percent survival of MTB (percentage of control)” value was 41.6 ± 3.5% with MTB H37Rv (48h of treatment) and 34.8 ± 3.0% in the data set on MTB H37Rv (72h of treatment). The Percent survival result in data set [1] is on record as “inhibited the percent survival”; in data set [1] (treatment with 3-MA), “increase in the percent survival that was comparable to untreated controls”; in data set [2], “inhibited the percent survival”; in data set [2] (treatment with 3-MA) it was “increase in the percent survival that was comparable to untreated controls”. The “Conversion of LC3-I to LC3-II (immunoblotting)” value in data set [3] was “conversion of LC3-I to II at 10μM and 20μM dose”. Further, the “Degradation of p62 (immunoblotting)” value in data set [3] is “p62 degradation at 10μM and 20μM dose”. Besides, the “Autophagy induction (LC3-I to LC3-II conversion and p62 degradation)” value in data set [4] was “autophagy induction in MTB infected cells after CMN treatment”. Also, the “Expression of anti-apoptotic protein Bcl-2” value in data set [5] (24h, RAW cells with or without MTB infection) is listed as “downregulation”. The “Expression of pro apoptotic proteins cleaved caspase-3, cleaved PARP and Bax” value in data set [5] (24h post treatment, compared to untreated cells) was “upregulated”. The “Phagosome lysosome fusion (co localization of GFP and Lysotracker Red)” value in data set [6] is recorded as “formation of yellow compartment in both the CMN treatment groups after 48h”. Moreover, in data set [7] (BALB/c, mouse, in vivo, po), the AUC(0-inf) is 170 ng·h/mL. The AUC(0-t) in data set [7] (BALB/c, mouse, in vivo, po) was 119 ng·h/mL. Besides, in data set [7] (BALB/c, mouse, in vivo, po), the concentration peaked (Cmax) at 45.2 ng/mL. In data set [7] (BALB/c, mouse, in vivo, po), this compound registered an MRT inf of 5.07 h. Moreover, the Tmax in data set [7] (BALB/c, mouse, in vivo, po) was determined as 0.25 h. In addition, in data set [7] (BALB/c, mouse, in vivo, po), the half-life was 3.66 h. In addition, the k el in data set [7] (BALB/c, mouse, in vivo, po) is 5.28e-05 s⁻¹. The “Time up to which CMN was detected in plasma after administration” value in data set [7] (oral, BALB/c mice) is “up to 8 h”.
Turning to `NNC(=O)c1ccncc1` [INH, isoniazid], the “Percent survival of MTB (percentage of control)” value with MTB H37Rv (48h of treatment) was found to be 35.1 ± 2.8%; in the data set with MTB H37Rv (72h of treatment), 22.9 ± 4.5%.

These data come from article PMC10424441, “Macrophage targeted polymeric curcumin nanoparticles limit intracellular survival of Mycobacterium tuberculosis through induction of autophagy and augment anti-TB activity of isoniazid in RAW 264.7 macrophages” (Frontiers in Immunology, 2023).
